Tests used:
α-La [1] = target: T1, α-La (Bos taurus, UniProt P00711); assay: Aggregation of GA in the presence of α-La (ANS fluorescence, CAC breakpoint); type: physicochemical; details: in the presence of α-La and ANS
T1 construct: purchased Davisco Foods International
T1 sequence (P00711 20-142): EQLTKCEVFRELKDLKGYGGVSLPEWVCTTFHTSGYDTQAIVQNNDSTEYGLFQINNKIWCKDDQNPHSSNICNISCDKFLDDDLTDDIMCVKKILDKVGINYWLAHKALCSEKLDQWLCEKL
Procedure: Measurement of aggregation: adding 8-Anilino-1-naphthalenesulfonic acid (ANS) solution (80 microliter (µL), 8 mmol/L) into 4 milliliter (mL) of the mixed solutions prepared in Embodiment 1 and Embodiment 2, respectively, and standing the solutions in the dark for 15 min; measuring the aggregation with a 1 centimeter (cm) light path cuvette, setting the excitation/emission slit of the instrument to 5.0/2.5 nano-meter (nm), the excitation wavelength at 355 nm, and recording the emission spectrum as 360 - 600 nm; recording the value of the most fluorescent intensity.
The threshold concentration required to form small molecular aggregates on the surface of protein is called critical aggregation concentration (CAC), which is usually lower than critical micelle concentration (CMC). […] For example, the minimum value of fluorescence of α-La is recorded under neutral condition and 1.0 mM GA, while the minimum value is observed after adding 2.0 mM GA in acid solution; this is because the pH of the original solution of GA is 4.3, while the carboxylate of GA is protonated and its electrostatic charge is shielded when the pH is 2.5, which leads to the decrease of repulsion between GA molecules and promotes self-assembly of molecules to form aggregates; GA is easier to polymerize under acidic conditions when the concentration of α-La is constant, that is, it has a smaller CAC.

[2] = pH of the original solution of GA; type: physicochemical
α-La [3] = target: T1, α-La; assay: Binding isotherm: number of GA molecules bound per α-La molecule (endogenous fluorescence); details: α-La 20 µmol/L, 25 °C
Procedure: Determination of the number of molecules of glycyrrhizic acid binding α-La: under 25 degree Celsius (°C) and fixed concentration of α-La of 20 µmol/L, adjusting the concentration of GA (0 - 15.0 mM) to obtain a α-La-GA mixed solution; calculating an average value (v) of each protein molecule bound to surfactant molecules by measuring the endogenous fluorescence (λex = 295 nm) of α-La-GA mixed solution, and obtaining a binding isotherm from the change of the average number with the total concentration of GA as shown in FIG. 2.
Binding isotherm allows a good understanding of protein-glycyrrhizic acid binding behavior, with the average value (v) of glycyrrhizic acid molecules bound per protein molecule as the response value being used as a criterion for determination. […] In the region II of 0.02<CGA<1.00 mM, the average value v of bound GA molecules increases slowly but obviously, where the maximum fluorescence intensity is decreased. In the region III between 1.00 mM and 15.00 mM, a large number of synergistic binding appears with the formation of protein aggregates. Moreover, the values v under different pH conditions vary greatly in regions II and III (see Table 1). Acidic conditions can induce more GA molecules to bind with α-La in the process of non-cooperative binding and cooperative binding, which may be due to the fact that the structure of α-La is unfolded under acidic conditions, prompting more hydrophobic groups to be exposed, thus making α-La binding with more GA molecules.

CC1(C)[C@@H](O[C@H]2O[C@H](C(=O)O)[C@@H](O)[C@H](O)[C@H]2O[C@@H]2O[C@H](C(=O)O)[C@@H](O)[C@H](O)[C@H]2O)CC[C@]2(C)[C@H]3C(=O)C=C4[C@@H]5C[C@@](C)(C(=O)O)CC[C@]5(C)CC[C@@]4(C)[C@]3(C)CC[C@@H]12 [GA, glycyrrhizic acid]
GA concentration at minimum value of fluorescence of α-La (breakpoint, CAC) (α-La [1]; acid solution): 2.0 mM | GA concentration at minimum value of fluorescence of α-La (breakpoint, CAC) (α-La [1]; neutral condition): 1.0 mM | pH of the original solution of GA [2]: 4.3 | average value v of GA molecules bound per protein molecule (α-La [3]; pH 2.5, characteristic area I, CGA 0 - 0.20): 0 - 8.96 | average value v of GA molecules bound per protein molecule (α-La [3]; pH 2.5, characteristic area II, CGA 0.20 - 1.00): 8.96 - 48.95 | average value v of GA molecules bound per protein molecule (α-La [3]; pH 7.0, characteristic area I, CGA 0 - 0.20): 0 - 5.22 | average value v of GA molecules bound per protein molecule (α-La [3]; pH 7.0, characteristic area II, CGA 0.20-1.00): 5.22 - 39.49 | average value v of GA molecules bound per protein molecule (α-La [3]; pH 7.0, characteristic area III, CGA 1.00-15.00): 39.49 - 998.19

Source: patent publication US20230148626A1, “PROTEIN-BASED FORMING AGENT, PREPARATION METHOD AND APPLICATION THEREOF” (NORTHEAST AGRICULTURAL UNIVERSITY, priority 2021, published 2023)
